Like-named read-outs stand apart in the source and are kept apart here. Blank lines part the entries; values can stand above or below the compound they belong to.
How the values were obtained:
mTOR kinase = mTOR kinase (Homo sapiens, UniProt P42345); assay: mTOR kinase assay in vitro; assay type: biochemical
HCC827 = assay: SRB assay HCC827; assay type: cell-based; conditions: Homo sapiens, mean±SD
Description: (§1) To investigate the effect of DHW‐221 in vitro, SRB assay was performed. […] Additionally, the long‐term efficacy of DHW‐221 was evaluated and confirmed a better antiproliferation role than NVP‐BEZ235 (Figure 2C–E). Figure 2F investigates the concentration‐dependently inhibition of DHW‐221 on protein synthesis in cells. HCC827 xenograft models in both subcutaneous and orthotopic were used to further evaluate its antitumor potency in vivo. […] Moreover, DHW‐221 treatment could ameliorate the burden of orthotopic carcinoma to nude mice (Figure 2O, P).
(§2) FIGURE 2 DHW‐221 inhibits the viability of NSCLC cells both in vitro and in vivo. (A) The structure of compound DHW‐221. (B) The viability of HCC827, NCI‐H292, NCI‐H1993, and A549 cells treated with various concentrations of DHW‐221 at 24, 48, and 72 h was determined by sulforhodamine B (SRB) assay. (C–E) The growth‐inhibitory effect of DHW‐221 on HCC827 and NCI‐H1993 cells was measured using a colony formation assay (C), a lactate dehydrogenase (LDH) assay (D), and a tumor sphere formation assay (E). […] (F) OPP‐labeled protein content was detected by luciferase plate. (G) Tumor‐burdened nude mice and resected tumor samples from subcutaneous xenografts after 21 days (n = 6). (H) Subcutaneous tumor volume was measured daily with a caliper. (I) Mean tumor weight was measured to subcutaneous xenografts at the end of the experiment. (J) Subcutaneous xenografts nude mice were weighed daily on an electronic scale. (K) The index of each main organ of subcutaneous xenografts nude mice. (L) Liver and kidney function indexes subcutaneous xenografts nude mice were evaluated to predict drug toxicity. (M) Hematoxylin and eosin (H&E) staining of the liver, spleen, and kidney from subcutaneous xenografts nude mice; scale bar = 100 µm. (N) Photographs of NSCLC orthotopic tumor samples, n = 6. (O) Orthotopic xenografts nude mice were weighed daily on an electronic scale. (P) The index of lung organ was measured from orthotopic xenografts nude mice. Mean ± SD; *p < 0.05, **p < 0.01, ***p < 0.001 versus the control (model). […]

NCI-H292 = assay: SRB assay NCI-H292; assay type: cell-based; conditions: Homo sapiens, mean±SD
Description: as §1, §2

NCI-H1993 = assay: SRB assay NCI-H1993; assay type: cell-based; conditions: Homo sapiens, mean±SD
Description: as §1, §2

A549 = assay: SRB assay A549; assay type: cell-based; conditions: Homo sapiens, mean±SD
Description: as §1, §2

Pharmacokinetics in mice = assay type: in vivo; conditions: mouse, plasma, 10 mg/kg; for MRT inf: read-out: MRTinf_obs
Description: ^a Values are the average of three runs. Vehicle: DMSO:ethanol:saline=3:100:897. ^b Dose:10 mg/kg. T1/2, half-life; Cmax, maximum concentration; Tmax, time of maximum concentration; AUCall, area under the plasma concentration time curve.

[1] = tested on: normal cell lines (HL7702, HUVEC, and MRC-5); assay: SRB cytotoxicity toward normal cell lines; assay type: cell-based; conditions: MRC-5, 72 h
Description: as §1
Figure S3. The effect of DHW-221 on normal cell lines. SRB assay was used to determine the cytotoxicity of DHW-221 toward normal cell lines (HL7702, HUVEC, and MRC-5) at 72 h. Mean ± SD; **p < 0.01, ***p < 0.001 vs. the control. One-way analysis of variance followed by Tukey’s post hoc multiple-comparisons test.

HCC827 xenograft = HCC827 xenograft models (subcutaneous and orthotopic) in nude mice; assay type: in vivo
Description: as §1, §2

NSCLC cells = assay: Cell cycle analysis by flow cytometry; assay type: cell-based, human; conditions: 48 h, concentration-dependently
Excerpt: The PI3K/AKT/mTOR pathway is strongly linked to the regulation of cell cycle progression and apoptosis during cell proliferation.[6], [7] […] Meanwhile, the expression of endogenous cyclins in G0/G1 phase was detected by western blot, confirming that DHW‐221 regulated the cell cycle (Figure 3B). Apoptosis is crucial for anticancer drugs to kill cancer cells.[7] […] Finally, the proapoptotic effects of DHW‐221 were confirmed by western blot analysis of apoptosis‐related protein expression both in vitro and in vivo (Figure 3G–I).
FIGURE 3 DHW‐221 induces cell cycle arrest and cell apoptosis in NSCLC both in vitro and in vivo. (A) DHW‐221 and NVP‐BEZ235 were detected by flow cytometry for 48 h. The raw histogram is shown at the top and the quantification of specific cell cycle stages at the bottom. (B) Western blot analysis of the expression levels of cell cycle‐related proteins in HCC827 and NCI‐H1993 cells after 48 h of treatment with the specified concentrations of DHW‐221 and NVP‐BEZ235. (C) Hoechst 33342 staining results. Apoptotic cells are bright blue; scale bar, 50 µm. […] Green fluorescence indicates decreased mitochondrial membrane potential, red fluorescence indicates normal mitochondrial membrane potential; scale bar, 100 µm. […] (G–I) The expression levels of apoptosis‐related proteins in NSCLC cells (G, H) and tumor tissues (I) were detected by western blot. […]

Notch2 and Notch3 = assay: Western blot of Notch pathway proteins; assay type: cell-based, human; conditions: HCC827 and NCI-H1993 cells, 48 h
Description: The PI3K signaling pathway is interrelated with Notch. However, the regulatory relationship between Notch and PI3K/AKT/mTOR pathways is still unclear. Next, we investigated the effects of DHW-221 on Notch and its downstream critical target Hes-1.
Figure S2. DHW-221 blocks the notch pathway. HCC827 and NCI-H1993 cells were treated with DHW-221 or NVP-BEZ235 for 48 h following which western blotting was performed on the cell lysates. Mean ± SD; **p < 0.01, ***p < 0.001 vs. the control. One-way analysis of variance followed by Tukey’s post hoc multiple-comparisons test.

p-mTOR = assay: Western blot of p-AKT and p-mTOR in PI3K knocked down HCC827 cells; assay type: cell-based, human
Excerpt: First, we identified potential targets of DHW‐221. […] For mTOR, DHW‐221 precisely overlapped with it and formed two more hydrogen bonds (Val2240 and Thr2245) than NVP‐BEZ235 (Figure 1A). […] Additionally, we knocked down PI3K in HCC827 cells (Figure 1C) and compared how DHW‐221, NVP‐BEZ235, and wortmannin (a PI3K inhibitor) treatments affected AKT and mTOR protein phosphorylation levels. […] Finally, western blot and immunofluorescence analysis confirmed the effect of DHW‐221 on the expression of PI3K/AKT/mTOR pathway‐related proteins both in vitro and in vivo (Figure 1E–G). […] The effects of DHW‐221 on notch pathway are provided in Result S1.
FIGURE 1 DHW‐221 is a PI3K/mTOR dual‐target inhibitor and inhibits the PI3K/AKT/mTOR signaling pathway. (A) Predicted binding modes for DHW‐221 (blue stick) with PI3Kα (PDB code: 4JPS) and mTOR (PDB code: 4JT6). Hydrogen bonds are shown as green dashed lines. Key residues for DHW‐221 and BEZ235 interaction are highlighted. (B) A cellular thermal shift assay (CETSA) and an isothermal dose–response fingerprinting (ITDRF)cetsa were used to evaluate the thermal stability of DHW‐221 bound to PI3Kα/β or mTOR. (C, D) The expression of PI3K, p‐AKT, and p‐mTOR in transfected NSCLC cells was assessed by western blot. […]

IC50 (mTOR kinase): 0.0039 µM
IC50 (HCC827; 24h, n=3, read-out: IC50 HCC827 24h): 8.33 ± 1.45 µM
IC50 (HCC827; 48h, n=3, read-out: IC50 HCC827 48h): 0.97 ± 0.127 µM
IC50 (HCC827; 72h, n=3, read-out: IC50 HCC827 72h): 0.032 ± 0.018 µM
IC50 (NCI-H292; 24h, n=3, read-out: IC50 NCI-H292 24h): 7.32 ± 2.42 µM
IC50 (NCI-H292; 48h, n=3, read-out: IC50 NCI-H292 48h): 0.253 ± 0.149 µM
IC50 (NCI-H292; 72h, n=3, read-out: IC50 NCI-H292 72h): 0.026 ± 0.003 µM
IC50 (NCI-H1993; 24h, n=3, read-out: IC50 NCI-H1993 24h): 3.23 ± 1.29 µM
IC50 (NCI-H1993; 48h, n=3, read-out: IC50 NCI-H1993 48h): 0.762 ± 0.083 µM
IC50 (NCI-H1993; 72h, n=3, read-out: IC50 NCI-H1993 72h): 0.117 ± 0.054 µM
IC50 (A549; 24h, n=3, read-out: IC50 A549 24h): 7.14 ± 1.24 µM
IC50 (A549; 48h, n=3, read-out: IC50 A549 48h): 0.893 ± 0.288 µM
IC50 (A549; 72h, n=3, read-out: IC50 A549 72h): 0.372 ± 0.086 µM
AUC (Pharmacokinetics in mice; iv): 262 ± 75.7 µg·h/mL
Cmax (Pharmacokinetics in mice; iv): 67.4 ± 8.54 µg/mL
Tmax (Pharmacokinetics in mice; iv): 0.083 h
half-life (Pharmacokinetics in mice; iv): 3.7 ± 0.2 h
MRT inf (Pharmacokinetics in mice; iv): 4.7 ± 0.3 h
bioavailability (Pharmacokinetics in mice; po vs iv, read-out: F (oral bioavailability)): 67.5%
AUC (Pharmacokinetics in mice; po): 176 ± 51.1 µg·h/mL
Cmax (Pharmacokinetics in mice; po): 11.8 ± 3.4 µg/mL
Tmax (Pharmacokinetics in mice; po): 3 ± 1.7 h
half-life (Pharmacokinetics in mice; po): 7.1 ± 0.9 h
MRT inf (Pharmacokinetics in mice; po): 11.4 ± 0.3 h
alanine aminotransferase concentration (HCC827 xenograft; subcutaneous xenograft nude mice, high dose): increased at high dose
Structure (SMILES): COc1ncc(-c2ccc3ncn(-c4ccc(OCCO)cc4)c3c2)cc1NS(=O)(=O)c1ccc(F)cc1F [DHW-221]
effect on normal cells [1]: without affecting the normal cells
tumor growth (HCC827 xenograft; HCC827 subcutaneous and orthotopic xenografts, nude mice): apparently inhibited tumor growth
body weight (HCC827 xenograft; xenograft nude mice): without affecting body weight
cell cycle arrest (NSCLC cells): arrested at G0/G1 phase
expression of Notch2 and Notch3 (Notch2 and Notch3): had no effect
p-mTOR expression compared with wortmannin (p-mTOR): significantly decreased

Structure (SMILES): Cn1c(=O)n(-c2ccc(C(C)(C)C#N)cc2)c2c3cc(-c4cnc5ccccc5c4)ccc3ncc21 [NVP‐BEZ235, reference compound]
p-mTOR expression compared with wortmannin (p-mTOR): significantly decreased

Source: paper PMC8473641, “Dual blocking of PI3K and mTOR signaling by DHW‐221, a novel benzimidazole derivative, exerts antitumor activity in human non‐small cell lung cancer” (Clinical and Translational Medicine, 2021)
